Data from patent publication US20060003016A1, “Therapeutic method for endolymphatic hydrops associated diseases” (priority 2004, published 2006).
Where two headings read alike, the source gives them in different places.

What was measured:
[1] = system: patients with Meniere's disease and endolymphatic hydrops associated diseases; details: for hearing level / hearing level, average (500-4000 Hz): case 4, right ear; for hearing level after treatment / hearing level after treatment, average (500-4000 Hz) / hearing improved as compared with before the treatment (four-frequency PTA): water intake
Text: (§1) In the present case who could be followed up for more than 24 months after treatment with water intake, the therapeutic effect was judged by using the criteria of AAO-HNS (1995)^14), 15). Proviso that in an examination on changes of the hearing, although the criteria in the four-frequency pure-tone averages (PTA) of AAO-HNS (1995)^14) adopted mean values of the hearing levels consisting of 500 Hz, 1000 Hz, 2000 Hz and 3000 Hz, in our case, the value of 4000 Hz was used in stead of that of 3000 Hz.
In each figure, a horizontal axis indicates frequency (Hz) and a vertical axis indicates hearing level. […] A graph in the upper position indicates better hearing level.

[2] = system: patients with Meniere's disease
Text: as §1
Therapeutic effect for vertigo^14), 15) was calculated according to the following equation. [formula]
Namely, in the present case, vertiginous attack in 6 months during 18 months-24 months after the treatment was 0 time, and average numbers of rotatory vertigo per month for 6 months before the treatment were 2 times (i.e. onset in Mar. 5, 2000 and Jul. 22, 2000 within 6 months before Aug. 5, 2000). Consequently, applying the above equation: [formula] […] Clinical Case 4 Low Frequency Sensorineural Hearing Loss of the Right Ear

## O [water intake, water]
[1]; 4000 Hz, Jan. 2004, water intake 1.5 lit./day
  hearing level: 25 dB
[1]; 4000 Hz, Jul. 2003, water intake 1.5 lit./day
  hearing level: 60 dB
[1]; 4000 Hz, Jun. 2003, water intake 1.5 lit./day from Jun. 20, 2003
  hearing level: 25 dB
[1]; 4000 Hz, Nov. 2003, water intake 1.5 lit./day
  hearing level: 35 dB
[1]; 4000 Hz, Oct. 2003, water intake 1.5 lit./day
  hearing level: 30 dB
[1]; 4000 Hz, Sep. 2003, water intake 1.5 lit./day
  hearing level: 40 dB
[1]; 8000 Hz, Aug. 2003, water intake 1.5 lit./day
  hearing level: 75 dB
[1]; 8000 Hz, Dec. 2003, water intake 1.5 lit./day
  hearing level: 60 dB
[1]; 8000 Hz, Jan. 2004, water intake 1.5 lit./day
  hearing level: 65 dB
[1]; 8000 Hz, Jul. 2003, water intake 1.5 lit./day
  hearing level: 85 dB
[1]; 8000 Hz, Jun. 2003, water intake 1.5 lit./day from Jun. 20, 2003
  hearing level: 75 dB
[1]; 8000 Hz, Nov. 2003, water intake 1.5 lit./day
  hearing level: 65 dB
[1]; 8000 Hz, Oct. 2003, water intake 1.5 lit./day
  hearing level: 80 dB
[1]; 8000 Hz, Sep. 2003, water intake 1.5 lit./day
  hearing level: 80 dB
[1]; Aug. 2003, water intake 1.5 lit./day
  hearing level, average (500-4000 Hz): 26.25 dB
[1]; Dec. 2003, water intake 1.5 lit./day
  hearing level, average (500-4000 Hz): 22.5 dB
[1]; Jan. 2004, water intake 1.5 lit./day
  hearing level, average (500-4000 Hz): 22.5 dB
[1]; Jul. 2003, water intake 1.5 lit./day
  hearing level, average (500-4000 Hz): 50.0 dB
[1]; Jun. 2003, water intake 1.5 lit./day from Jun. 20, 2003
  hearing level, average (500-4000 Hz): 35.0 dB
[1]; Nov. 2003, water intake 1.5 lit./day
  hearing level, average (500-4000 Hz): 23.75 dB
[1]; Oct. 2003, water intake 1.5 lit./day
  hearing level, average (500-4000 Hz): 25.0 dB
[1]; Sep. 2003, water intake 1.5 lit./day
  hearing level, average (500-4000 Hz): 41.25 dB
[1]; case 6, right ear, 125 Hz, Apr. 11, 2002, poorest level 18-24 months after treatment
  hearing level after treatment: 65 dB
[1]; case 6, right ear, 250 Hz, Apr. 11, 2002, poorest level 18-24 months after treatment, before 85 dB
  hearing level after treatment: 80 dB
[1]; case 6, right ear, 500 Hz, Apr. 11, 2002, poorest level 18-24 months after treatment, before 85 dB
  hearing level after treatment: 80 dB
[1]; case 6, right ear, 1000 Hz, Apr. 11, 2002, poorest level 18-24 months after treatment, before 85 dB
  hearing level after treatment: 85 dB
[1]; case 6, right ear, 2000 Hz, Apr. 11, 2002, poorest level 18-24 months after treatment, before 75 dB
  hearing level after treatment: 75 dB
[1]; case 6, right ear, 4000 Hz, Apr. 11, 2002, poorest level 18-24 months after treatment, before 90 dB
  hearing level after treatment: 90 dB
[1]; case 6, right ear, 8000 Hz, Apr. 11, 2002, poorest level 18-24 months after treatment, before 95 dB
  hearing level after treatment: 90 dB
[1]; case 6, right ear, Apr. 11, 2002, poorest level 18-24 months after treatment, before 83.75 dB
  hearing level after treatment, average (500-4000 Hz): 82.5 dB
[1]; case 6, right ear
  hearing improved as compared with before the treatment (four-frequency PTA): 1.25 dB
[1]; case 6, water intake
  category of change of hearing, AAO-HNS (1995) criteria: unchanged
[1]; case 7, left ear, 125 Hz, Oct. 10, 2003, poorest level 18-24 months after treatment, before 35 dB
  hearing level after treatment: 5 dB
[1]; case 7, left ear, 250 Hz, Oct. 10, 2003, poorest level 18-24 months after treatment, before 40 dB
  hearing level after treatment: 5 dB
[1]; case 7, left ear, 500 Hz, Oct. 10, 2003, poorest level 18-24 months after treatment, before 30 dB
  hearing level after treatment: 5 dB
[1]; case 7, left ear, 1000 Hz, Oct. 10, 2003, poorest level 18-24 months after treatment, before 20 dB
  hearing level after treatment: 5 dB
[1]; case 7, left ear, 2000 Hz, Oct. 10, 2003, poorest level 18-24 months after treatment, before 10 dB
  hearing level after treatment: 5 dB
[1]; case 7, left ear, 4000 Hz, Oct. 10, 2003, poorest level 18-24 months after treatment, before 30 dB
  hearing level after treatment: 20 dB
[1]; case 7, left ear, 8000 Hz, Oct. 10, 2003, poorest level 18-24 months after treatment, before 40 dB
  hearing level after treatment: 45 dB
[1]; case 7, left ear, Oct. 10, 2003, poorest level 18-24 months after treatment, before 22.5 dB
  hearing level after treatment, average (500-4000 Hz): 8.75 dB
[1]; case 7, left ear
  hearing improved as compared with before the treatment (four-frequency PTA): 13.75 dB
[1]; case 7, water intake
  category of change of hearing, AAO-HNS (1995) criteria: improved
[1]; case 8, right ear, 125 Hz, Sep. 19, 2003, poorest level 18-24 months after treatment, before 60 dB
  hearing level after treatment: 40 dB
[1]; case 8, right ear, 250 Hz, Sep. 19, 2003, poorest level 18-24 months after treatment, before 70 dB
  hearing level after treatment: 40 dB
[1]; case 8, right ear, 500 Hz, Sep. 19, 2003, poorest level 18-24 months after treatment, before 60 dB
  hearing level after treatment: 35 dB
[1]; case 8, right ear, 1000 Hz, Sep. 19, 2003, poorest level 18-24 months after treatment, before 60 dB
  hearing level after treatment: 40 dB
[1]; case 8, right ear, 2000 Hz, Sep. 19, 2003, poorest level 18-24 months after treatment, before 50 dB
  hearing level after treatment: 40 dB
[1]; case 8, right ear, 4000 Hz, Sep. 19, 2003, poorest level 18-24 months after treatment, before 65 dB
  hearing level after treatment: 60 dB
[1]; case 8, right ear, 8000 Hz, Sep. 19, 2003, poorest level 18-24 months after treatment, before 85 dB
  hearing level after treatment: 80 dB
[1]; case 8, right ear, Sep. 19, 2003, poorest level 18-24 months after treatment, before 58.75 dB
  hearing level after treatment, average (500-4000 Hz): 43.75 dB
[1]; case 8, right ear
  hearing improved as compared with before the treatment (four-frequency PTA): 15.0 dB
[1]; case 8, water intake
  category of change of hearing, AAO-HNS (1995) criteria: improved
[2]; case 3, water intake
  category of therapeutic effect for vertigo, AAO-HNS criteria: complete control
[2]; case 3, water intake, 2 times in 6 months before
  vertiginous attack in 6 months during 18 months-24 months after the treatment: 0 time
[2]; case 6, water intake
  category of therapeutic effect for vertigo, AAO-HNS criteria: complete control
[2]; case 6, water intake, 4 times estimated in 6 months before
  vertiginous attack in 6 months during 18 months-24 months after the treatment: 0 time
[2]; case 7, water intake
  category of therapeutic effect for vertigo, AAO-HNS criteria: complete control
[2]; case 7, water intake, 0 time in 6 months before
  vertiginous attack in 6 months during 18 months-24 months after the treatment: 0 time
[2]; case 8, water intake
  category of therapeutic effect for vertigo, AAO-HNS criteria: complete control
[2]; case 8, water intake, 1 in 6 months before
  vertiginous attack in 6 months during 18 months-24 months after the treatment: 0 time
